Laboratory results published in the pKa sets of Baltruschat and Czodrowski (2020).

Conditions: basic group

| SMILES | pKa |
| --- | --- |
| [O-]c1cnc2ccccc2n1 | 9.1 |
| CCN(CC)CCN=C(c1ccccc1C)c1ccccc1C | 8.8 |
| Oc1cc2cccnc2c2cccnc12 | 3.9 |
| C=C[C@]1(O)C[C@@H](C)N[C@@H]2CCCC[C@H]21 | 9.98 |
| CCCCCCCCCCCCCCCCN(CC(C)O)CC(C)O (stereo not given) | 9.19 |
| CN(C)c1ccc(/C=C/c2ccncc2)cc1 | 6.25 |
| CCN(N)CC | 7.63 |
| COc1ccc(CN)c([N+](=O)[O-])c1 | 8.77 |
| C=CCC(C)(CN(CC)CC)OC(=O)c1ccccc1 (stereo not given) | 7.8 |
| C1CCc2c(nnc3c2CCCC3)C1 | 6.12 |
| COc1ccc2nc3ccccc3cc2c1 | 3.82 |
| CCOC(=O)CCCCCN | 10.4 |
| CN1[C@@H](CC(=O)c2ccccc2)CCC[C@H]1C[C@@H](O)c1ccccc1 | 8 |
| O=C([O-])c1cc2cc(Cn3ccnc3)ccc2s1 | 6.77 |
| c1cnc2ccc3[nH+]cccc3c2c1 | 2.4 |
| CN1CCOCC1 | 7.66 |
| NC(=O)c1c2cccc1COCCOCc1ncc([nH]1)COCCOC2 | 5.72 |
| CCN(CC)CCOC(=O)c1ccccc1 | 8.9 |
| C#CCCN(C)C | 8.33 |
| CN1c2ccccc2Nc2ccc(O)cc21 | 1 |
| [O-][n+]1cnc2[nH]cnc2c1NCc1ccccc1 | 2.66 |
| CC(CC[NH+](C)C)NN (stereo not given) | 5.9 |
| NC1CCN(Cc2ccccc2)CC1 | 9.79 |

| SMILES | pKa |
| --- | --- |
| CN(C)CCCCCCCNC(=O)/C=N/[O-] | 10.5 |
| Nc1ccnc([S-])n1 | 10.6 |
| CC(C)Nc1ncnc2[nH]ncc12 | 4.62 |
| Nc1cccc2cc3ccccc3nc12 | 4.4 |
| CON | 4.62 |
| CC1=C(CC(C)NCC(O)c2ccccc2)CCC1(C)C (stereo not given) | 8.84 |
| [O-][n+]1cnc(NCc2ccccc2)c2nc[nH]c21 | 2.86 |
| CCCNCC(=O)[O-] | 10.2 |
| O=[N+]([O-])c1cccc2cn[nH]c12 | -0.83 |
| c1ccc(-n2cccn2)[nH+]c1 | -4.8 |
| CN(C)c1ccc(N)cc1 | 6.37 |
| CCSC(C)=N | 6.9 |
| COc1ccc(N(C)CO)cc1 | 4.59 |
| CCc1cc(C)nnc1C | 4.73 |
| CC(C)(C)N1NC2CCC1C2 (stereo not given) | 9.12 |
| Cc1ccccc1C(=N)c1ccccc1 | 7.21 |
| Cc1cc(-c2cc(C)n(C)[nH+]2)nn1C | -0.6 |
| CC(O)[C@@H]1CN[C@H](C(=O)[O-])[C@H]1CC(=O)[O-] (stereo not given in full) | 10.1 |
| Nc1cc(N)c2cccnc2c1O | 6.96 |
| CCC(C)N (stereo not given) | 10.6 |
| Nc1cccc2ccnnc12 | 3.68 |
| O=C1NCCN1 | 3.09 |
| C=CCN1CCOCC1 | 7.05 |

| SMILES | pKa |
| --- | --- |
| CCOc1ccc2c3c1O[C@H]1[C@@H](O)C=C[C@H]4[C@@H](C2)N(C)CC[C@@]341 | 8.03 |
| CN(C)[C@H]1CCCC[C@@H]1O | 10.4 |
| CC[C@]1(O)C[C@H](C)N[C@@H]2CCCC[C@H]21 | 10.1 |
| COc1c(C)cccc1C(=O)N[C@@H]1C[C@H]2CC[C@@H](C1)N2Cc1ccccc1 | 8.92 |
| COc1cc(NS(C)(=O)=O)ccc1-c1cn2cccnc2n1 | 4.17 |
| CCOC(=O)CCN | 9.13 |
| CCCCCCCCCCCCCCCC[NH+](CCCCCCCCCCCCCCCC)CCCn1ccnc1 | 4.4 |
| Cc1cc([O-])[nH+]c([S-])n1 | 7.73 |
| COc1cc(S(C)=O)ccc1-c1cn2ccnc(OC)c2n1 (stereo not given) | 2.46 |
| c1ccc(CC2=NCCC2)cc1 | 6.9 |
| Cn1ncc2c(NCc3ccccc3)ncnc21 | 3.66 |
| OCCn1cnc2ccccc21 | 5.29 |
| Cc1cc(Br)ccc1N | 3.58 |
| O=[N+]([O-])c1ccc(O)c2ncccc12 | 2.88 |
| N[C@@H]1C[C@@H]2CCCC[C@H]2C[C@@H]1N | 9.93 |
| Cc1ccccc1NC(=O)CN | 7.81 |
| C=CC(CC(C)(C)C)c1ccc2cccnc2c1O (stereo not given) | 4.94 |
| CC1([NH3+])C[C@]1(C)N (stereo not given in full) | 5.94 |
| C1CCN(CCC[NH+]2CCCC2)C1 | 8.03 |
| c1ccc(C2CN3CCC2CC3)cc1 (stereo not given) | 10.2 |
| Nc1ccncc1C(=O)[O-] | 9.1 |
| Nc1ccc(S(=O)(=O)Nc2nccs2)cc1 | 2.35 |
| CN[C@H]1C[C@]1(C)[NH2+]C | 5.52 |

| SMILES | pKa |
| --- | --- |
| Cn1ncc2ccccc21 | 0.51 |
| NC(=O)C(N)Cc1c[nH]cn1 (stereo not given) | 7.64 |
| CNCCC#N | 8.1 |
| CNCCCNC(=O)/C=N/[O-] | 10.6 |
| CCN(CC)CCC[C@@H](C)[C@H]1CC[C@H]2[C@@H]3CC[C@@H]4C[C@H](O)CC[C@]4(C)[C@H]3C[C@H](O)[C@]12C | 10.3 |
| NC(=O)NOCCC(N)C(=O)[O-] (stereo not given) | 8.9 |
| Cn1cccn1 | 2.48 |
| CC(N)CCCc1ccccc1 (stereo not given) | 9.99 |
| OCc1nc2ccccc2[nH]1 | 4.82 |
| Cn1c(-c2ccccn2)[nH+]c2ccccc21 | -1.27 |
| Cc1ccc(N)cc1-c1cc([NH3+])ccc1C | 3.8 |
| CNc1nc(C)nc2[nH]ncc12 | 5.56 |
| [S-]c1ncnc2ncncc12 | 6.23 |
| CCNCCN | 10.5 |
| Cc1cc(C)c(C)c(N)c1C | 4.3 |
| COc1ncc2[nH]cnc2n1 | 2.44 |
| Nc1ccc(-c2cnc(-c3ccc(Cl)cc3)o2)cc1 | 3.52 |
| C=C(C)C(=O)OCCNCC | 9.15 |
| CN1C[C@H](C(=O)[O-])C=C2c3cccc4[nH]cc(c34)C[C@@H]21 | 8.49 |
| N#CC(C#N)=NNc1ccccc1C(F)(F)F | -0.7 |
| Cn1c(=O)c2[nH]cnc2n(C)c1=O | 8.64 |
